From PMC5872116, “Screening of E. coli β-clamp Inhibitors Revealed that Few Inhibit Helicobacter pylori More Effectively: Structural and Functional Characterization” (Antibiotics, 2018) come the findings set out here.

Assay [1] addresses T1, Hpβ-clamp (Helicobacter pylori, UniProt O25242).
T1 construct: gene dnaN; recombinant, expressed in E. coli BL21, Ni-NTA and gel filtration purified (His-tag implied); homodimer
T1 sequence (O25242 1-374): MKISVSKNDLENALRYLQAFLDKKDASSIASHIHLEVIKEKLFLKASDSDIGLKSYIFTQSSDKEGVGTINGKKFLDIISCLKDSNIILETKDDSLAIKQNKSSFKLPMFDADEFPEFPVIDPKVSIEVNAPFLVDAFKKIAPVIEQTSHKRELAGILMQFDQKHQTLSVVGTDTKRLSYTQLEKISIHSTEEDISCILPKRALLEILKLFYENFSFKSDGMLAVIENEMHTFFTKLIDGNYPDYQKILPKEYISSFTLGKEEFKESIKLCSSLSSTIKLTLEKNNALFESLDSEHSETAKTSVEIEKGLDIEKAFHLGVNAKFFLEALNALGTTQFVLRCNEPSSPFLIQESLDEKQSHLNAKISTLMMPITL
The assay can be described thus: SPR surface competition with HpDNA ligase, immobilised Hpβ-clamp (qualitative). It is filed as binding. To be noted: competitive with HpDNA ligase; HBS-EP pH 7.4, 2% DMSO.

Assay [2] concerns the target T1, Hpβ-clamp. Briefly: co-crystal structure ([…] Å); also SPR surface competition with HpDNA ligase. It is filed as binding. To be noted: subsite I of protein-protein interaction site; competitive with HpDNA ligase.

SMILES strings stand for the structures.

For `O=[N+]([O-])c1ccc2cn[nH]c2c1` [C2, 6-nitroindazole], at Hpβ-clamp [1], the “SPR surface competition with HpDNA ligase, immobilised Hpβ-clamp (qualitative)” value is listed as “All five shortlisted molecules showed competitive binding to β-clamp”.

Take `C[C@H](C(=O)O)c1ccc2c(c1)[nH]c1ccc(Cl)cc12` [C3, (S)-carprofen]: the “co-crystal structure (1.97 Å); also SPR surface competition with HpDNA ligase” value on Hpβ-clamp [2] is on record as 5FXT (Hpβ-clamp complex with carprofen, C3).

With `O=[N+]([O-])c1ccc2[nH]ccc2c1` [C4, 5-nitroindole], at Hpβ-clamp [1], the “SPR surface competition with HpDNA ligase, immobilised Hpβ-clamp (qualitative)” value was “All five shortlisted molecules showed competitive binding to β-clamp”.
